Earlier results as cited in patent US12329853B2, “Compositions and methods for treating ocular diseases” (OCULAR THERAPEUTIX, INC., priority 2020, dated 2025).

Legend:
[1] = organic solvents typically employed for fabrication of microspheres using solvent evaporation
FP prostanoid receptor = FP prostanoid receptor (Homo sapiens, UniProt P43088)
Sequence of FP prostanoid receptor (P43088 whole entry): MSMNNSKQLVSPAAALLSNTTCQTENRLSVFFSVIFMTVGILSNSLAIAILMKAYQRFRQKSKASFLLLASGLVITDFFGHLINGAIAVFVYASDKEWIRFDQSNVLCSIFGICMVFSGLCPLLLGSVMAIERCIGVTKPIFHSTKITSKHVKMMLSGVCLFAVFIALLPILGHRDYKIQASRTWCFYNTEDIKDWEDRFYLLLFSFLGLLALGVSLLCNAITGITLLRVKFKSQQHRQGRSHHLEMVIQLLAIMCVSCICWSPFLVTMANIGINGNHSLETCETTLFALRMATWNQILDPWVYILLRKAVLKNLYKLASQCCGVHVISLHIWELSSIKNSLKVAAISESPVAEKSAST

Row | Solubility in organic solvents [1] | SMILES | Selectivity for the FP prostanoid receptor compared to latanoprost (FP prostanoid receptor) | Potency compared to latanoprost (FP prostanoid receptor; FP prostanoid receptor)
1 | readily soluble | CC(C)OC(=O)CCC/C=C\C[C@@H]1[C@@H](CC[C@@H](O)CCc2ccccc2)[C@H](O)C[C@@H]1O [Latanoprost] | – | –
2 | – | O=C(O)CCC/C=C\C[C@@H]1[C@@H](/C=C/[C@@H](O)COc2cccc(C(F)(F)F)c2)[C@H](O)C[C@@H]1O [free acid of travoprost] | greater selectivity | higher potency
